Results as given in US12611392B2, “Mitochondria-targeting antioxidants” (GIVAUDAN SA, priority 2019, dated 2026).
Where two headings read alike, the source gives them in different places.

What was measured:
[1] = cited from earlier work
[2] = test system: ROS production in cardiac tissue; assay: ROS production by dihydroethidium (DHE) staining of cardiac tissue after ischemia-reperfusion; set-up: species or system rat; conditions: 10 min after IR; for reduction of DHE fluorescence compared to control hearts: MitoT 0.1 μM, sinapine 60 μM
Description: LV samples were embedded in Optimal Cutting Temperature (OCT from Tissue-Tek) and flash-frozen in liquid nitrogen. Frozen sections were covered with 10 μM DHE and incubated in alight-protected humidified chamber at 37° C. for 5 min. Images were obtained with a fluorescence microscope (Olympus BX60, Excitation: 488 nm; emission: 610 nm) at the Imaging facility 3A INRA/University of Avignon. SOD-mimetic TEMPOL (10 mM, Santa Cruz Biotechnology) was used as a negative control to confirm that the signals resulted from ROS production.

[3] = Partition between octan-1-ol and aqueous solution at pH 7.0 (log P / log D); conditions: for partition in octan-1-ol: octan-1-ol / water pH 7.0; for share in the aqueous phase: octan-1-ol / water
Description: In a 10-mL glass tube, two milligrams of sinapine, sinapic acid or MitoTEMPO were added by 4 mL of a 75 mM KH2PO4 buffer solution (aqueous phase), and 4 mL of octan-1-ol. The mixture was then vortexed for 1 hour at room temperature and left to equilibrate for 30 min for sinapic acid and sinapine, and overnight for MitoTEMPO. Both phases were collected with a Pasteur pipette and extemporaneously analyzed by LC-MS using the procedure described below in section 2.7.
The partition coefficient of sinapine, sinapic acid and MitoTEMPO (a commercially-available mitonchondria-targeting superoxide dismutase (SOD) mimetic) between two immiscible liquid phases (octan-1-ol and an aqueous solution at pH 7.0) was measured.

[4] = Plasmatic and tissular levels after oral administration of sinapine; format: in vivo, rat; conditions: oral sinapine 200 mg/kg; for level in cytosolic and mitochondrial fractions of the heart: 120 min post-gavage; for plasmatic level: 10, 30, 60, 120 min
Description: To evaluate plasmatic and tissular bioavailability of sinapine, rats received 200 mg/kg of sinapine by oral gavage. […] Sinapine and sinapic acid were then quantified in plasma using the following procedure: plasma (50 μL) is mixed with internal standard solution (50 μL in methanol at 10 ng/mL) and mix on a vortex for 1 minute. The solution is then centrifuge for 3 minutes at 12000 rpm, and the supernatant injected into HPLC/MS for quantification. At the end of the procedure the animals were sacrificed and hearts quickly removed. The right ventricle cleaned and LV samples frozen in liquid nitrogen. LV tissue was homogenized in 2 mL of mitochondria isolation buffer (pH 7.2; in mM: 300 saccharose, 5 TES. 0.2 EGTA), using a Polytron (Ultra Turrax T25, IKA Labortechnik). The homogenate was centrifugated at 1,000 g for 10 min at 4° C. To separate cytosolic fraction from the mitochondrial one, the supernatant was centrifugated at 12,000 g for 15 min to 4° C., then collected (cytosolic fraction), while the pellet was collected for mitochondria fraction. To optimize the release of mitochondria materials, the pellet was homogenized in 2% Triton-X lysis buffer during 10 min on ice. To remove Triton-X, mitochondrial fraction was washed, then centrifuged (12,000 g for 15 min at 4° C.) and the pellet was resuspended in mitochondria isolation buffer. Cytosolic and mitochondria fraction obtained were quickly frozen in liquid nitrogen until HPLC measurement. To do so, mitochondria was extracted with the same procedure as for plasma procedure. Cytosol (50 μL) was pipetted into 10 mL volumetric flask, spiked successively with internal standard solution (200 μL at 250 ng/mL in methanol) and 5 mL of methanol-water (50/50 v:v). The flask was ultrasonicated for 5 min, and once cooled down, completed to 10 mL with methanol-water (50/50 v:v). Both the mitochondrial and the cytosolic fractions were analyzed with the LC-MS/MS procedure described above.
After 120 min post-gavage, the heart was removed, rinsed and quickly frozen in liquid nitrogen.

[5] = test system: ROS production in isolated adult rat cardiomyocytes; assay: H2O2 and antimycin A-induced oxidative stress in cardiomyocytes (H2DCF-DA and DHR123 probes); format: cell-based; conditions: for effect on H2O2-induced increase in H2DCF-DA fluorescence (cytosolic ROS): 0.1 mM H2O2, 1 h pre-incubation; for effect on H2O2-induced increase in H2DCF-DA fluorescence (cytosolic ROS) / effect of pre-incubation on basal H2DCF-DA and DHR123 fluorescence: sinapic acid 60 μM; for effect of pre-incubation on basal H2DCF-DA and DHR123 fluorescence: control (basal) cells, no stress, sinapine 6 or 60 μM, 1 h
Description: Cardiomyocytes (30,000 cell/mL) were incubated with sinapine or sinapic acid for 1 h. Thirty minutes before the end, a fluorogenic probe was added. We used dihydrorhodamine 123 (DHR123) to probe mitochondrial H2O2 and peroxynitrites (Invitrogen Molecular probes Fischer scientific, D23806, Ex/Em: 508/529 nm, concentration=5 μM) and 2′,7′-dichlorodihydrofluorescein diacetate (H2DCF-DA) to probe cytosolic H2O2(Invitrogen Molecular probes Fischer scientific, D399 Ex/Em: 492/517 nm, concentration=5 μM). Cells were rinsed with a Tyrode solution and distributed in microplates for the various conditions. Some cells were stimulated with 0.1 mM H2O2(Sigma Aldrich) or with a 10 μM complex III blocker, antimycin A (AA, Sigma Aldrich) to force the cell to produce mitochondrial ROS. The microplate was immediately transferred to the microplate reader Tecan Infinite M200Pro. Fluorescence was measured at the different wavelengths every 5 min for 30 min.
Two different ROS sensitive fluorogenic probes were used, H2DCF-DA and DHR123, which are specific of cytosolic and mitochondrial ROS production, respectively (Wei et al. Nitric oxide induces oxidative stress and apoptosis in neuronal cells. Biochim. Biophys. Acta-Mol. Cell Res. 2000, 1498, 72-79; Rego et al. Influence of the antioxidants vitamin E and idebenone on retinal cell injury mediated by chemical ischemia, hypoglycemia, or oxidative stress. Free Rad Biol. Med. 1999, 26, 1405-1417; Mark et al. Basic FGF attenuates amyloid β-peptide-induced oxidative stress, mitochondrial dysfunction, and impairment of Na+/K+-ATPase activity in hippocampal neurons. Brain Res. 1997, 756, 205-214).
Myocytes loaded with one of the probes were distributed in microplate wells. ROS production was determined by following the increase of fluorescence for […]. Fluorescence was measured every 5 min and was normalized by the baseline fluorescence (T0). Some cells were incubated with either sinapine (6 or 60 μM) or sinapic acid (60 μM) for 1 h prior measurement. After the incubations, cells were washed out. Some cells were stimulated with 0.1 mM H2O2 or with a mitochondrial electron transport chain complex III blocker, 10 μM antimycin A (AA) to force mitochondria to produce mitochondrial ROS (Quinlan et al. The mechanism of superoxide production by the antimycin-inhibited mitochondrial Q-cycle. J. Biol. Chem. 2011, 286, 31361-31372).

[6] = Conjugated autoxidizable triene (CAT) assay; conditions: oil-in-water microemulsion; n=3
From the text: (§1) The result of this operation gave the net area under the curve (AUC) which was then plotted on a graph as a function of the concentration.

[7] = Oxygen radical absorbance capacity (ORAC) assay; conditions: aqueous solution; n=4
From the text: as §1

cardiomyocytes = assay: Cytosol/mitochondria partitioning in cardiomyocytes by LC-MS/MS
Description: (§2) Ventricular cardiomyocytes were isolated from 200-250 g male adult Wistar rats as previously described (Cazorla et al. Transmural stretch-dependent regulation of contractile properties in rat heart and its alteration after myocardial infarction. FASEB J. 2005, 19, 88-90). The rats were anesthetized by i.p. injection of pentobarbital sodium (100 mg/kg) with heparin (100 U). The heart was rapidly excised, rinsed in ice-cold Hanks-HEPES buffer (in mM: NaCl 117, KCl 5.7. NaHCO3 4.4, KH2PO4 1.5. MgCl2 1.7, HEPES 21, glucose 11.7, taurine 20. pH at 7.15) mounted on a Langendort perfusion system and perfused (3 mi/min, at 37° C.) first with a Hanks-HEPES buffer for 5 min to be cleared from blood, then with a buffer supplemented with 1.2 mg/mL collagenase type 4 (Worthington, Lakewood, N.J., USA) for 13-18 min. Small pieces of left ventricle were dissected and mechanically dissociated. […] Experiments were performed in Tyrode solution with 1.8 mM Ca^2+.
Antioxidants were also quantified in cardiomyocytes using LC-MS/MS. Cardiomyocytes (100,000 cells/mL) were incubated in Tyrode for 1 or 2 h with different concentrations of sinapine (2, 20, and 60 μM) or sinapic acid (Sigma Aldrich, 2, 20, and 60 μM). Extracellular, cytosolic and mitochondrial fractions were obtained and frozen in liquid nitrogen until HPLC measurement. After incubation, cells were sedimented and the supernatant collected for the extracellular fraction. The pellet of cells was rinsed twice in Tyrode. Cells were incubated with PBS containing digitonine (5 mg/mL) for 10 min on ice. Cells were centrifugated at 10,000 g for 20 min at 4° C., and the supernatant consisting in the cytosolic fraction was collected. The mitochondrial fraction was collected after rinsing five times the pellets in PBS to avoid contamination of the cytosolic fraction.
These different fractions were then analyzed using an Agilent Poroshell EC-C18 120, 2.7 microns, 2.1×150 mm analytical column on an Agilent 1290 Infinity II series pump. Injection volume was 1 μL. HPLC flow rate was 0.3 mL/min with the following mobile phases: water with 0.1% formic acid (A) and acetonitrile with 0.1% formic acid (B). The gradient was as follows: 0.0-3.0 min 0-30% B, 3.0-7.0 min 30-60% B, then a stabilization step of 4 min at the initial condition. Autosampler tray temperature was set to 10° C. and column temperature was set to 25° C. Detection was performed with an Agilent 6420 triple quadrupole in positive ionization mode with ESI source, gas temperature 325° C., gas flow 9 L/min, nebulizer 35 psi, and capillary voltage 3500 V. Mass spectrometer was working in MRM mode acquisition following the specific transition for Isoproturon-d3 (internal standard 210.2→75.0), Sinapine 310.2→251.1 (qualifier 175.0 and 91.0) and Sinapic acid 225.1→207.0 (qualifier 91.0 and 65.0).
To further evaluate if a positively charged moiety (such as choline) can endowed an antioxidant devoid of any lipid affinity with the ability to accumulate in mitochondria, we incubated sinapine and sinapic acid (lacking the choline group, i.e. negative control) in intact cardiomyocytes at three concentrations (2, 20, and 60 μM) for 1 or 2 h. Then, the mitochondrial fraction was separated from the cytosolic one using differential centrifugation. The levels of sinapine and sinapic acid were measured in each subcellular fraction using LC-MS/MS.

[8] = test system: isolated adult cardiomyocytes; conditions: male, Wistar, rat, 2 μM
Description: as §2

[9] = 2, 20 and 60 μM, 1 or 2 h incubation

SMILES | log D/log P (pH 7.0) [1] | reduction of DHE fluorescence compared to control hearts [2] [%] | partition in octan-1-ol [3] [%] | level in cytosolic and mitochondrial fractions of the heart [4] | plasmatic level [4] | effect on H2O2-induced increase in H2DCF-DA fluorescence (cytosolic ROS) ([5]; sinapine 6 and 60 μM) | effect of pre-incubation on basal H2DCF-DA and DHR123 fluorescence [5] | share in the aqueous phase [3] [%] | ORAC value [7] | other results
COC1=C(OC)C(=O)C(CCCCCCCCCC[P+](c2ccccc2)(c2ccccc2)c2ccccc2)=C(C)C1=O.CS(=O)(=O)[O-] [MitoQ10] | 3.4 | – | – | – | – | – | – | – | – | –
CC1(C)CC(NC(=O)C[P+](c2ccccc2)(c2ccccc2)c2ccccc2)CC(C)(C)N1[O] [MitoTEMPO] | – | 24 | 50 | – | – | – | – | – | – | log D (pH 7.0) ([3]; octan-1-ol / aqueous buffer, experimental): 0.0; partitioning in both phases ([3]; octan-1-ol / aqueous phase, pH 7.0): 50/50
COC1=C(OC)C(=O)C(CCC[P+](c2ccccc2)(c2ccccc2)c2ccccc2)=C(C)C1=O [MitoQ3] | 0.5 | – | – | – | – | – | – | – | – | –
COc1cc(/C=C/C(=O)O)cc(OC)c1O [sinapic acid] | – | – | – | not found in any of the fractions | detected at all time points at a relatively stable level | prevented the increase in H2DCF-DA | no impact on the fluorescence level | > 85 | 2.73±0.176 mol of Trolox equivalent per mol of compound | plasma amount of sinapic acid relative to sinapine ([4]; 2 h period): about five times more sinapic acid than sinapine; ROS production (DHE) versus Ctrl ([2]; sinapic acid 60 μM, not significant (p=0.12)): −20%; log P ([3]; octan-1-ol / aqueous solution at pH 7.0): −0.9; CAT value [6]: 1.74±0.07 mol of Trolox equivalent per mol of compound; time of entry into cardiac cells (cardiomyocytes): within an hour
COc1cc(/C=C/C(=O)OCC[N+](C)(C)C)cc(OC)c1O [sinapine] | – | 45 | < 0.2 | detected and quantified in both the cytosol and mitochondria | detected at all time points at a relatively stable level | prevented the increase in H2DCF-DA | no impact on the fluorescence level | > 99 | 2.28±0.25 mol of Trolox equivalent per mol of compound | effect on antimycin A-induced increase in DHR123 fluorescence (mitochondrial ROS) ([5]; 10 μM antimycin A, 1 h pre-treatment): prevented by sinapine; dose dependence of the effect on H2O2-induced H2DCF-DA increase ([5]; sinapine 6 and 60 μM): dose-dependent; time after which fluorescence increased [8]: 10 to 15 min; logD ([3]; pH 7): -3; logP ([3]; pH 7): -3; level of the incubated compound in cytosol (cardiomyocytes; [9]): detected sinapine in a dose dependent manner; level of the incubated compound in mitochondria (cardiomyocytes; [9]): detected in a dose-dependent manner in mitochondria; share of sinapine entering the mitochondria that is hydrolyzed to sinapic acid (cardiomyocytes; after 1 or 2 h): approximately 25%; time of entry into cardiac cells (cardiomyocytes; no time-dependency between 1 and 2 h): within an hour; hydrolysis of sinapine in cytosol (sinapic acid not detected) (cardiomyocytes; sinapine incubation 1 or 2 h): no major sinapine hydrolysis
COC1=C(OC)C(=O)C(CCCCC[P+](c2ccccc2)(c2ccccc2)c2ccccc2)=C(C)C1=O [MitoQ5] | 1.1 | – | – | – | – | – | – | – | – | –
